Laboratory results reported in ChEMBL document CHEMBL3045812, “Synthesis of fatty acid Schiff base esters as potential antimicrobial and chemotherapeutic agents” (Med Chem Res, 2013).
Converted amounts (≈) assume the structure as drawn. The source made the active and inactive calls. The rule behind the calls is not given here.

Assays:
Candida albicans [1] = assay: Antifungal activity against Candida albicans MTCC 7315 after 24 hr by microtiter broth dilution method; format: functional; conditions: MTCC 7315, 24 h
Candida albicans [2] = assay: Antifungal activity against Candida albicans MTCC 227 after 24 hr by microtiter broth dilution method; format: functional; conditions: MTCC 227, 24 h
Candida albicans [3] = assay: Antifungal activity against Candida albicans MTCC 854 after 24 hr by microtiter broth dilution method; format: functional
Raoultella planticola = assay: Antibacterial activity against Raoultella planticola MTCC 530 at 1.4 to 300 ug/ml after 24 hr by microtiter broth dilution method; format: functional, organism-based
Escherichia coli = assay: Antibacterial activity against Escherichia coli MTCC 739 at 1.4 to 300 ug/ml after 24 hr by microtiter broth dilution method; format: functional, organism-based
Micrococcus luteus = assay: Antibacterial activity against Micrococcus luteus MTCC 2470 at 1.4 to 300 ug/ml after 24 hr by microtiter broth dilution method; format: functional, organism-based
Pseudomonas aeruginosa = assay: Antibacterial activity against Pseudomonas aeruginosa MTCC 2453 after 24 hr by microtiter broth dilution method; format: functional
Staphylococcus aureus [4] = assay: Antibacterial activity against Staphylococcus aureus MLS16 MTCC 2940 after 24 hr by microtiter broth dilution method; format: functional
Bacillus subtilis = assay: Antibacterial activity against Bacillus subtilis MTCC 121 after 24 hr by microtiter broth dilution method; format: functional
Staphylococcus aureus [5] = assay: Antibacterial activity against Staphylococcus aureus MTCC 96 after 24 hr by microtiter broth dilution method; format: functional
N2a = assay: Cytotoxicity against Mus musculus (mouse) Neuro2a cells by tetrazolium-reduction assay; format: functional, cell-based
HeLa = assay: Cytotoxicity against Homo sapiens (human) HeLa cells by tetrazolium-reduction assay; format: functional, cell-based
HepG2 = assay: Cytotoxicity against Homo sapiens (human) HepG2 cells by tetrazolium-reduction assay; format: functional, cell-based
A549 = assay: Cytotoxicity against Homo sapiens (human) A549 cells by tetrazolium-reduction assay; format: functional, cell-based
Pichia sporocuriosa = assay: Antifungal activity against Issatchenkia hanoiensis MTCC 4755 after 24 hr by microtiter broth dilution method; format: functional; conditions: MTCC 4755, 24 h
[Candida] aaseri [6] = Antifungal activity against Candida aaseri MTCC 1962 after 24 hr by microtiter broth dilution method; format: functional; conditions: Yamadazyma aaseri, MTCC 1962, 24 h
Pichia kudriavzevii = assay: Antifungal activity against Pichia kudriavzevii MTCC 3020 after 24 hr by microtiter broth dilution method; format: functional; conditions: MTCC 3020, 24 h
Nakaseomyces glabratus [7] = assay: Antifungal activity against Candida glabrata MTCC 3019 after 24 hr by microtiter broth dilution method; format: functional
Candida parapsilosis [8] = assay: Antifungal activity against Candida parapsilosis MTCC 1744 after 24 hr by microtiter broth dilution method; format: functional
Candida albicans [9] = assay: Antifungal activity against Candida albicans MTCC 3018 after 24 hr by microtiter broth dilution method; format: functional; conditions: MTCC 3018, 24 h
Candida albicans [10] = assay: Antifungal activity against Candida albicans MTCC 3017 after 24 hr by microtiter broth dilution method; format: functional
Candida albicans [11] = assay: Antifungal activity against Candida albicans MTCC 3958 after 24 hr by microtiter broth dilution method; format: functional; conditions: MTCC 3958, 24 h
Candida albicans [12] = assay: Antifungal activity against Candida albicans MTCC 1637 after 24 hr by microtiter broth dilution method; format: functional
Candida albicans [13] = assay: Antifungal activity against Candida albicans MTCC 183 after 24 hr by microtiter broth dilution method; format: functional; conditions: MTCC 183, 24 h
MDA-MB-231 = assay: Cytotoxicity against Homo sapiens (human) MDA-MB-231 cells by tetrazolium-reduction assay; format: functional, cell-based
MCF7 = assay: Cytotoxicity against Homo sapiens (human) MCF7 cells by tetrazolium-reduction assay; format: functional, cell-based
Candida albicans [14] = assay: Antifungal activity against Candida albicans MTCC 227 at 1.4 to 300 ug/ml after 24 hr by microtiter broth dilution method; format: functional, organism-based
Candida albicans [15] = assay: Antifungal activity against Candida albicans MTCC 854 at 1.4 to 300 ug/ml after 24 hr by microtiter broth dilution method; format: functional, organism-based
[Candida] aaseri [16] = Antifungal activity against Candida aaseri MTCC 1962 at 1.4 to 300 ug/ml after 24 hr by microtiter broth dilution method; format: functional, organism-based
Candida parapsilosis [17] = assay: Antifungal activity against Candida parapsilosis MTCC 1744 at 1.4 to 300 ug/ml after 24 hr by microtiter broth dilution method; format: functional, organism-based
Nakaseomyces glabratus [18] = assay: Antifungal activity against Candida glabrata MTCC 3019 at 1.4 to 300 ug/ml after 24 hr by microtiter broth dilution method; format: functional, organism-based
Candida albicans [19] = assay: Antifungal activity against Candida albicans MTCC 3017 at 1.4 to 300 ug/ml after 24 hr by microtiter broth dilution method; format: functional, organism-based
Candida albicans [20] = assay: Antifungal activity against Candida albicans MTCC 3018 at 1.4 to 300 ug/ml after 24 hr by microtiter broth dilution method; format: functional, organism-based
Candida albicans [21] = assay: Antifungal activity against Candida albicans MTCC 3958 at 1.4 to 300 ug/ml after 24 hr by microtiter broth dilution method; format: functional, organism-based
Candida albicans [22] = assay: Antifungal activity against Candida albicans MTCC 1637 at 1.4 to 300 ug/ml after 24 hr by microtiter broth dilution method; format: functional, organism-based
Candida albicans [23] = assay: Antifungal activity against Candida albicans MTCC 183 at 1.4 to 300 ug/ml after 24 hr by microtiter broth dilution method; format: functional, organism-based
Candida albicans [24] = assay: Antifungal activity against Candida albicans MTCC 7315 at 1.4 to 300 ug/ml after 24 hr by microtiter broth dilution method; format: functional, organism-based
[25] = Homo sapiens, MCF7, read-out: IC50
[26] = Lodderomyces parapsilosis, MTCC 1744, 24 h

Row | Compound | MIC (Candida albicans [1]) [µg/mL] | MIC (Candida albicans [2]) [µg/mL] | Activity (Raoultella planticola) | Activity (Escherichia coli) | Activity (Micrococcus luteus) | MIC (Pseudomonas aeruginosa; MTCC 2453, 24 h) [µg/mL] | MIC (Staphylococcus aureus [4]; MLS16 MTCC 2940, 24 h) [µg/mL] | MIC (Bacillus subtilis; MTCC 121, 24 h) [µg/mL] | MIC (Staphylococcus aureus [5]; MTCC 96, 24 h) [µg/mL] | Activity (N2a) | Activity (HeLa) | Activity (HepG2) | Activity (A549) | MIC (Pichia sporocuriosa) [µg/mL] | MIC ([Candida] aaseri [6]) [µg/mL] | MIC (Pichia kudriavzevii) [µg/mL] | MIC (Candida albicans [9]) [µg/mL] | MIC (Candida albicans [11]) [µg/mL] | MIC (Candida albicans [13]) [µg/mL] | IC50 (MDA-MB-231) [µM] | other results
1 | CCCCCCCC(=O)Oc1ccc(/C=N/Cc2cccnc2)cc1 | 150 (≈ 443 µM) | 150 (≈ 443 µM) | inactive | inactive | inactive | 300 (≈ 886 µM) | 300 (≈ 886 µM) | 300 (≈ 886 µM) | 37.5 (≈ 111 µM) | inactive | inactive | inactive | inactive | 300 (≈ 886 µM) | 300 (≈ 886 µM) | 150 (≈ 443 µM) | 300 (≈ 886 µM) | 150 (≈ 443 µM) | 150 (≈ 443 µM) | 15.8 | MIC (Candida albicans [3]): inactive; MIC (Nakaseomyces glabratus [7]; MTCC 3019, 24 h): 150 µg/mL (≈ 443 µM); MIC (Candida parapsilosis [8]): inactive; MIC (Candida albicans [10]): inactive; MIC (Candida albicans [12]): inactive; IC50 (MCF7; [25]): 12 µM
2 | CCCCCCCCCCCCCCCC(=O)Oc1ccc(/C=N/Cc2cccnc2)cc1 |  |  | inactive | inactive | inactive |  |  |  |  | inactive | inactive | inactive | inactive |  |  |  |  |  |  |  | MIC (Pseudomonas aeruginosa): inactive; MIC (Staphylococcus aureus [4]): inactive; MIC (Bacillus subtilis): inactive; MIC (Staphylococcus aureus [5]): inactive; Activity (Candida albicans [14]): inactive; Activity (Candida albicans [15]): inactive; Activity ([Candida] aaseri [16]): inactive; Activity (Candida parapsilosis [17]): inactive; Activity (Nakaseomyces glabratus [18]): inactive; Activity (Candida albicans [19]): inactive; Activity (Candida albicans [20]): inactive; Activity (Candida albicans [21]): inactive; Activity (Candida albicans [22]): inactive; Activity (Candida albicans [23]): inactive; Activity (Candida albicans [24]): inactive
3 | COc1cccc2c1C(=O)c1c(O)c3c(c(O)c1C2=O)C[C@@](O)(C(=O)CO)C[C@@H]3O[C@H]1C[C@H](N)[C@H](O)[C@H](C)O1 [DOXORUBICIN] |  |  |  |  |  |  |  |  |  |  |  |  |  |  |  |  |  |  |  | < 1 | 
4 | Oc1ccc(/C=N/Cc2cccnc2)cc1 |  |  |  |  |  |  |  |  | 75 (≈ 353 µM) | inactive | inactive | inactive | inactive |  |  |  |  |  |  | 16.9 | MIC (Pseudomonas aeruginosa): inactive; MIC (Staphylococcus aureus [4]): inactive; MIC (Bacillus subtilis): inactive; Activity (Candida albicans [14]): inactive; Activity (Candida albicans [15]): inactive; IC50 (MCF7; [25]): 12 µM; Activity ([Candida] aaseri [16]): inactive; Activity (Candida parapsilosis [17]): inactive; Activity (Nakaseomyces glabratus [18]): inactive; Activity (Candida albicans [19]): inactive; Activity (Candida albicans [20]): inactive; Activity (Candida albicans [21]): inactive; Activity (Candida albicans [22]): inactive; Activity (Candida albicans [23]): inactive; Activity (Candida albicans [24]): inactive
5 | CCCCCCC(=O)Oc1ccc(/C=N/Cc2cccnc2)cc1 | 150 (≈ 462 µM) | 75 (≈ 231 µM) | inactive | inactive | inactive | 37.5 (≈ 116 µM) | 150 (≈ 462 µM) | 300 (≈ 925 µM) | 37.5 (≈ 116 µM) | inactive | inactive | inactive | inactive | 75 (≈ 231 µM) | 75 (≈ 231 µM) | 75 (≈ 231 µM) | 75 (≈ 231 µM) | 150 (≈ 462 µM) | 300 (≈ 925 µM) | 15 | MIC (Candida albicans [3]; MTCC 854, 24 h): 300 µg/mL (≈ 925 µM); MIC (Nakaseomyces glabratus [7]): inactive; MIC (Candida parapsilosis [8]; [26]): 300 µg/mL (≈ 925 µM); MIC (Candida albicans [10]): inactive; MIC (Candida albicans [12]; MTCC 1637, 24 h): 150 µg/mL (≈ 462 µM); IC50 (MCF7; mcf7): Not Active
6 | OC(Cn1cncn1)(Cn1cncn1)c1ccc(F)cc1F [FLUCONAZOLE] | 32 (≈ 104 µM) | 32 (≈ 104 µM) |  |  |  |  |  |  |  |  |  |  |  | 64 (≈ 209 µM) | 64 (≈ 209 µM) | 128 (≈ 418 µM) | 32 (≈ 104 µM) | 64 (≈ 209 µM) | 32 (≈ 104 µM) |  | MIC (Candida albicans [3]; MTCC 854, 24 h): 32 µg/mL (≈ 104 µM); MIC (Nakaseomyces glabratus [7]; MTCC 3019, 24 h): 64 µg/mL (≈ 209 µM); MIC (Candida parapsilosis [8]; [26]): 16 µg/mL (≈ 52.2 µM); MIC (Candida albicans [10]; MTCC 3017, 24 h): 64 µg/mL (≈ 209 µM); MIC (Candida albicans [12]; MTCC 1637, 24 h): 64 µg/mL (≈ 209 µM)
